Laboratory results as given in ChEMBL document CHEMBL5370684, “Small-Molecule Heterocyclic Compounds: Gq-Biased Agonists for the 5-HT2A Receptor in Neuropsychiatric Treatment” (ACS Med Chem Lett, 2023).

Legend:
[1] = target: T1, 5-hydroxytryptamine receptor 2A (Homo sapiens, UniProt P28223); assay: Agonist activity at RLuc-fused 5-HT2A (unknown origin) expressed in HEK293T cells co-transfected with mVenus-fused beta arrestin-2/GRK2 assessed as beta arrestin-2 recruitment at 0.1 to 10 uM incubated for 30 mins using coelenterazine h as a substrate by BRET assay relative to control; assay type: functional, cell-based; conditions: dose 0.1-10 µM
T1 sequence (P28223 whole entry, the tested form may be a part): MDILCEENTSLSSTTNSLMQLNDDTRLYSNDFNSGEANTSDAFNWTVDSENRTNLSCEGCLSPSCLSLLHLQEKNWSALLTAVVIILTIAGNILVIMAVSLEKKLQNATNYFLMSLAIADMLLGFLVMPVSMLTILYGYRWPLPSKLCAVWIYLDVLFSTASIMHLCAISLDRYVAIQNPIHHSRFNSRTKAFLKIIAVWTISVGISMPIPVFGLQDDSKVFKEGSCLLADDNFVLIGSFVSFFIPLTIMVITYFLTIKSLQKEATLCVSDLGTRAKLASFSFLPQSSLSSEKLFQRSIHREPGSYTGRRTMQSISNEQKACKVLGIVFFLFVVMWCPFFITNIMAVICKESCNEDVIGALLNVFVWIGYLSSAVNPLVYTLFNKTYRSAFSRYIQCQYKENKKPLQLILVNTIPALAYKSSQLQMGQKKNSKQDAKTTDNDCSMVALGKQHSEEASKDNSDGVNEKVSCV

[2] = target: T1, 5-hydroxytryptamine receptor 2A; assay: Agonist activity at 5-HT2A (unknown origin) expressed in HEK293T cells co-transfected with RLuc-fused Galphaq/GFP2/Gy9/Gbeta3 assessed as Gaq hetero trimeric G protein activation at 0.1 to 10 uM incubated for 30 mins using coelenterazine 400a as a substrate by BRET assay relative to control; assay type: functional, cell-based; conditions: filed as agonist, dose 0.1-10 µM
[3] = target: T1, 5-hydroxytryptamine receptor 2A; assay: Agonist activity at 5-HT2A (unknown origin) expressed in HEK293T cells co-transfected with RLuc-fused Galphaq/GFP2/Gy9/Gbeta3 assessed as Gaq hetero trimeric G protein activation incubated for 30 mins using coelenterazine 400a as a substrate by BRET assay; assay type: functional, cell-based
[4] = target: T1, 5-hydroxytryptamine receptor 2A; assay: Agonist activity at RLuc-fused 5-HT2A (unknown origin) expressed in HEK293T cells co-transfected with mVenus-fused beta arrestin-2/GRK2 assessed as beta arrestin-2 recruitment incubated for 30 mins using coelenterazine h as a substrate by BRET assay; assay type: functional, cell-based
[5] = target: T1, 5-hydroxytryptamine receptor 2A; assay: Displacement of [3H]-LSD form 5-HT2A (unknown origin) expressed in Flp-In-T-Rex-293 membrane by Microbeta scintillation counting analysis; assay type: cell membranes

SMILES | Emax ([1]; filed as agonist) [%] | Emax [2] [%] | Emax [1] [%] | EC50 [3] [nM] | EC50 [4] [nM] | Ki [5] [nM]
Cc1cccc2[nH]cc(C3=CCCNC3)c12 | 42 | 85.7 |  |  |  | 
COc1ccnc2[nH]cc(C3=CCCN(C)C3)c12 |  | 67.1 | 32.2 |  |  | 
Clc1ccc2[nH]nc(C3=CCCNC3)c2c1 | 97 | 94.8 |  |  |  | 
C1=C(c2c[nH]c3cccc(-c4ccccc4)c23)CNCC1 |  | 59.6 | 15.1 | 874 | 358 | 14
CN1CCC=C(c2n[nH]c3cc(F)ccc23)C1 |  | 47.1 | 27 |  |  | 
Fc1ccc2[nH]nc(C3=CCCNC3)c2c1 | 96 | 88.3 |  |  |  | 
CC(C)c1ccc2[nH]cc(C3=CCCNC3)c2c1 |  | 58.8 | 31.4 |  |  | 
COc1cccc2[nH]cc(C3=CCCNC3)c12 | 51.8 | 96.1 |  |  |  | 
CN1CCC=C(c2c[nH]c3c(Cl)c(F)ccc23)C1 | 56.5 | 89.2 |  |  |  | 
CN1CCC=C(c2n[nH]c3c(Cl)cc(F)cc23)C1 | 88.5 | 91.4 |  |  |  | 
Fc1ccc(Cl)c2[nH]nc(C3=CCCNC3)c12 | 72.7 | 106 |  |  |  | 
COc1cccc2[nH]cc(C3=CCCN(C)C3)c12 | 47.7 | 91 |  |  |  | 
Clc1ccc2[nH]cc(C3=CCCNC3)c2c1 | 77.3 | 102 |  |  |  | 
Fc1ccc2c(C3=CCCNC3)n[nH]c2c1 | 59.4 | 79.4 |  |  |  | 
COc1cccc2[nH]nc(C3=CCCNC3)c12 | 75.9 | 81.7 |  |  |  | 
Cc1ccnc2[nH]cc(C3=CCCN(C)C3)c12 |  | 68.7 | 38.9 |  |  | 
CN1CCC=C(c2n[nH]c3c(Cl)ccc(F)c23)C1 | 50.9 | 95.4 |  |  |  | 
